Source: US8192962B2, “Processes for detecting toxic substances” (Daikin Industries, Ltd., priority 2001, dated 2012)

Tested on: Transport facilitation protein genes
Assay: DNA chip mRNA expression in yeast, transport facilitation protein genes (Table 5)
Type: cell-based, Saccharomyces cerevisiae S288C
In short: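 Ratios compare mRNA levels in stressed and control S. cerevisiae. Each toxicant was applied for two hours to log-phase cultures at 25° C. at a sub-lethal, growth-inhibiting level; fluorescent cDNA (Cy3- or Cy5-dUTP) was hybridized to a genome-wide yeast chip for over 12 h at 65° C.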

S=C([S-])NCCNC(=S)[S-].[Zn+2] [(11), zinc N,N′-ethylenebis(dithiocarbamate)]
The level of expressed mRNA in the presence of chemical substance/The level of expressed mRNA in the absence of chemical substance (yeast gene YBL030C): 1.1 | The level of expressed mRNA in the presence of chemical substance/The level of expressed mRNA in the absence of chemical substance (yeast gene YBL099W): 2.1 | The level of expressed mRNA in the presence of chemical substance/The level of expressed mRNA in the absence of chemical substance (yeast gene YBR052C): 1.7 | The level of expressed mRNA in the presence of chemical substance/The level of expressed mRNA in the absence of chemical substance (yeast gene YBR068C): 0.8 | The level of expressed mRNA in the presence of chemical substance/The level of expressed mRNA in the absence of chemical substance (yeast gene YBR127C): 1.1 | The level of expressed mRNA in the presence of chemical substance/The level of expressed mRNA in the absence of chemical substance (yeast gene YBR132C): 1.9 | The level of expressed mRNA in the presence of chemical substance/The level of expressed mRNA in the absence of chemical substance (yeast gene YBR207W): 1.1 | The level of expressed mRNA in the presence of chemical substance/The level of expressed mRNA in the absence of chemical substance (yeast gene YBR293W): 1.1 | The level of expressed mRNA in the presence of chemical substance/The level of expressed mRNA in the absence of chemical substance (yeast gene YBR294W): 1.2 | The level of expressed mRNA in the presence of chemical substance/The level of expressed mRNA in the absence of chemical substance (yeast gene YBR295W): 1.1 | The level of expressed mRNA in the presence of chemical substance/The level of expressed mRNA in the absence of chemical substance (yeast gene YBR298C): 1.5 | The level of expressed mRNA in the presence of chemical substance/The level of expressed mRNA in the absence of chemical substance (yeast gene YCL025C): 1.0 | The level of expressed mRNA in the presence of chemical substance/The level of expressed mRNA in the absence of chemical substance (yeast gene YCL038C): 2.0 | The level of expressed mRNA in the presence of chemical substance/The level of expressed mRNA in the absence of chemical substance (yeast gene YCR024C-A): 1.5 | The level of expressed mRNA in the presence of chemical substance/The level of expressed mRNA in the absence of chemical substance (yeast gene YCR037C): 0.8 | The level of expressed mRNA in the presence of chemical substance/The level of expressed mRNA in the absence of chemical substance (yeast gene YCR098C): 1.3 | The level of expressed mRNA in the presence of chemical substance/The level of expressed mRNA in the absence of chemical substance (yeast gene YDL128W): 1.2 | The level of expressed mRNA in the presence of chemical substance/The level of expressed mRNA in the absence of chemical substance (yeast gene YDL198C): 2.5 | The level of expressed mRNA in the presence of chemical substance/The level of expressed mRNA in the absence of chemical substance (yeast gene YDL210W): 0.6 | The level of expressed mRNA in the presence of chemical substance/The level of expressed mRNA in the absence of chemical substance (yeast gene YDL245C): 1.5 | The level of expressed mRNA in the presence of chemical substance/The level of expressed mRNA in the absence of chemical substance (yeast gene YDR038C): 0.9 | The level of expressed mRNA in the presence of chemical substance/The level of expressed mRNA in the absence of chemical substance (yeast gene YDR039C): 0.9 | The level of expressed mRNA in the presence of chemical substance/The level of expressed mRNA in the absence of chemical substance (yeast gene YDR086C): 1.1 | The level of expressed mRNA in the presence of chemical substance/The level of expressed mRNA in the absence of chemical substance (yeast gene YDR270W): 1.0 | The level of expressed mRNA in the presence of chemical substance/The level of expressed mRNA in the absence of chemical substance (yeast gene YDR298C): 1.2 | The level of expressed mRNA in the presence of chemical substance/The level of expressed mRNA in the absence of chemical substance (yeast gene YDR342C): 2.9 | The level of expressed mRNA in the presence of chemical substance/The level of expressed mRNA in the absence of chemical substance (yeast gene YDR343C): 2.3 | The level of expressed mRNA in the presence of chemical substance/The level of expressed mRNA in the absence of chemical substance (yeast gene YDR345C): 1.5 | The level of expressed mRNA in the presence of chemical substance/The level of expressed mRNA in the absence of chemical substance (yeast gene YDR387C): 2.0 | The level of expressed mRNA in the presence of chemical substance/The level of expressed mRNA in the absence of chemical substance (yeast gene YDR497C): 0.7 | The level of expressed mRNA in the presence of chemical substance/The level of expressed mRNA in the absence of chemical substance (yeast gene YEL027W): 0.9 | The level of expressed mRNA in the presence of chemical substance/The level of expressed mRNA in the absence of chemical substance (yeast gene YEL063C): 0.8 | The level of expressed mRNA in the presence of chemical substance/The level of expressed mRNA in the absence of chemical substance (yeast gene YEL065W): 0.6 | The level of expressed mRNA in the presence of chemical substance/The level of expressed mRNA in the absence of chemical substance (yeast gene YER053C): 2.4 | The level of expressed mRNA in the presence of chemical substance/The level of expressed mRNA in the absence of chemical substance (yeast gene YER119C): 2.2 | The level of expressed mRNA in the presence of chemical substance/The level of expressed mRNA in the absence of chemical substance (yeast gene YFL011W): 2.1 | The level of expressed mRNA in the presence of chemical substance/The level of expressed mRNA in the absence of chemical substance (yeast gene YFL041W): 0.9 | The level of expressed mRNA in the presence of chemical substance/The level of expressed mRNA in the absence of chemical substance (yeast gene YFL050C): 1.2 | The level of expressed mRNA in the presence of chemical substance/The level of expressed mRNA in the absence of chemical substance (yeast gene YFL054C): 1.7 | The level of expressed mRNA in the presence of chemical substance/The level of expressed mRNA in the absence of chemical substance (yeast gene YFL055W): 2.7 | The level of expressed mRNA in the presence of chemical substance/The level of expressed mRNA in the absence of chemical substance (yeast gene YGL006W): 0.8 | The level of expressed mRNA in the presence of chemical substance/The level of expressed mRNA in the absence of chemical substance (yeast gene YGL008C): 0.7 | The level of expressed mRNA in the presence of chemical substance/The level of expressed mRNA in the absence of chemical substance (yeast gene YGL104C): 1.8 | The level of expressed mRNA in the presence of chemical substance/The level of expressed mRNA in the absence of chemical substance (yeast gene YGL167C): 0.8 | The level of expressed mRNA in the presence of chemical substance/The level of expressed mRNA in the absence of chemical substance (yeast gene YGL255W): 0.5 | The level of expressed mRNA in the presence of chemical substance/The level of expressed mRNA in the absence of chemical substance (yeast gene YGR055W): 1.5 | The level of expressed mRNA in the presence of chemical substance/The level of expressed mRNA in the absence of chemical substance (yeast gene YGR065C): 1.1 | The level of expressed mRNA in the presence of chemical substance/The level of expressed mRNA in the absence of chemical substance (yeast gene YGR082W): 1.3 | The level of expressed mRNA in the presence of chemical substance/The level of expressed mRNA in the absence of chemical substance (yeast gene YGR096W): 0.8 | The level of expressed mRNA in the presence of chemical substance/The level of expressed mRNA in the absence of chemical substance (yeast gene YGR138C): 0.7 | The level of expressed mRNA in the presence of chemical substance/The level of expressed mRNA in the absence of chemical substance (yeast gene YGR191W): 1.6 | The level of expressed mRNA in the presence of chemical substance/The level of expressed mRNA in the absence of chemical substance (yeast gene YGR197C): 1.1 | The level of expressed mRNA in the presence of chemical substance/The level of expressed mRNA in the absence of chemical substance (yeast gene YGR224W): 0.8 | The level of expressed mRNA in the presence of chemical substance/The level of expressed mRNA in the absence of chemical substance (yeast gene YGR260W): 1.3 | The level of expressed mRNA in the presence of chemical substance/The level of expressed mRNA in the absence of chemical substance (yeast gene YGR281W): 0.7
